The target in experiment [1] is CDK3/Cyclin E (Homo sapiens) (UniProt P24864+Q00526). In words: Inhibition of human CDK3/CyclinE1 at 1 uM using RBER-CHKtide as substrate in presence of 33P-ATP by ProQinase assay. The class given is protein-complex assay.
Experiment [2] has as its target Mast/stem cell growth factor receptor Kit (Homo sapiens) (UniProt P10721). As to the kind of experiment: Inhibition of human KIT at 1 uM using polyEY as substrate in presence of 33P-ATP by ProQinase assay.
Experiment [3] concerns the target Ribosomal protein S6 kinase alpha-1 (Homo sapiens) (UniProt Q15418). As to the kind of experiment: Inhibition of human RPS6KA1 at 1 uM using RBER-CHKtide as substrate in presence of 33P-ATP by ProQinase assay.
Experiment [4] deals with Dual specificity protein kinase CLK4 (Homo sapiens) (UniProt Q9HAZ1). In words: Inhibition of human CLK4 at 1 uM using MBP as substrate in presence of 33P-ATP by ProQinase assay.
For experiment [5], the target named is Megakaryocyte-associated tyrosine-protein kinase (Homo sapiens) (UniProt P42679). As to the kind of experiment: Inhibition of human MATK at 1 uM using polyEy as substrate in presence of 33P-ATP by ProQinase assay.
The target in experiment [6] is LIM domain kinase 2 (Homo sapiens) (UniProt P53671). As to the kind of experiment: Inhibition of human LIMK2 at 1 uM using CFL1 as substrate in presence of 33P-ATP by ProQinase assay.
The target in experiment [7] is Protein-tyrosine kinase 2-beta (Homo sapiens) (UniProt Q14289). In words: Inhibition of human PYK2 at 1 uM using polyEY as substrate in presence of 33P-ATP by ProQinase assay.
Experiment [8] concerns the target Dual specificity protein kinase CLK2 (Homo sapiens) (UniProt P49760). In words: Inhibition of recombinant human N-terminal GST-tagged CLK2 (138 to 499 residues) expressed in baculovirus infected Sf21 cells assessed as remaining activity at 1 uM using RNRYRDVSPFDHSR as substrate incubated for 30 mins in presence of [gamma-33P]ATP by filter binding method relative to control.

Experiment [9] concerns the target ALK tyrosine kinase receptor (Homo sapiens) (UniProt Q9UM73). As to the kind of experiment: Inhibition of human GST/His-tagged ALK at 1 uM using polyEY as substrate in presence of 33P-ATP by ProQinase assay.
In experiment [10] the test system is PI3-kinase p110-alpha/p85-alpha (Homo sapiens), P27986+P42336 [E545K]. In words: Inhibition of recombinant human N-terminal His6-tagged PI3Kalpha E545K mutant (2 to 1068 residues)/p85A (1 to 724 residues) expressed in baculovirus expression system at 1 uM using diC8 PIP2 as substrate incubated for 80 mins by ADP-Glo assay.
For experiment [11], the target named is TGF-beta receptor type-1 (Homo sapiens) (UniProt P36897). As to the kind of experiment: Inhibition of human TGFBR1 at 1 uM using RBER-CHKtide as substrate in presence of 33P-ATP by ProQinase assay.
The target in experiment [12] is Diacylglycerol kinase eta (Homo sapiens) (UniProt Q86XP1). In words: Inhibition of DGKeta (unknown origin) at 1 uM.
Experiment [13] concerns the target Phosphatidylinositol 4-phosphate 5-kinase type-1 alpha (Homo sapiens, UniProt Q99755). As to the kind of experiment: Inhibition of PIP5K1A (unknown origin) using D-myo-PIP as substrate incubated for 45 mins by ADP-Glo assay. (In general: ADP-Glo turns the ADP formed in a reaction into a luminescent signal.)
Experiment [14] addresses CDK9/cyclin T1 (Homo sapiens) (UniProt O60563+P50750). As to the kind of experiment: Inhibition of recombinant human N-terminal GST-tagged CDK9 (1 to 372 residues)/Cyclin T1 (1 to 726 residues) expressed in baculovirus infected Sf21 cells assessed as remaining activity at 1 uM using YSPTSPSYSPTSPSYSPTSPKKK as substrate incubated for 30 mins in presence of [gamma-33P]ATP by filter binding method relative to control.

For experiment [15], the target named is Misshapen-like kinase 1 (Homo sapiens) (UniProt Q8N4C8). In words: Inhibition of recombinant human N-terminal GST-tagged MINK1 (1 to 320 residues) expressed in baculovirus infected Sf21 cells assessed as remaining activity at 1 uM using MBP as substrate incubated for 30 mins in presence of [gamma-33P]ATP by filter binding method relative to control.
In experiment [16] the target is Receptor-type tyrosine-protein kinase FLT3 (Homo sapiens) (UniProt P36888). In words: Inhibition of human FLT3 at 1 uM using Poly(Ala,Glu,Lys,Tyr) as substrate in presence of 33P-ATP by ProQinase assay.
Experiment [17] has as its target CDK4/Cyclin D3 (Homo sapiens) (UniProt P11802+P30281). As to the kind of experiment: Inhibition of human CDK4/CycD3 at 1 uM using RBER-CHKtide as substrate in presence of 33P-ATP by ProQinase assay. The class given is protein-complex assay.
Experiment [18] relates to Serine/threonine-protein kinase Sgk1 (Homo sapiens), O00141 [S422D]. The note with it: Sf21, dose 1.0 µM, time 30.0 min.
Experiment [19] has as its target Receptor tyrosine-protein kinase erbB-4 (Homo sapiens) (UniProt Q15303). In words: Inhibition of recombinant human N-terminal His6-tagged HER4 (706 to 991 residues) expressed in baculovirus infected Sf21 cells assessed as remaining activity at 1 uM using Poly (Glu,Tyr) as substrate incubated for 30 mins in presence of [gamma-33P]ATP by filter binding method relative to control.

In experiment [20] the target is LIM domain kinase 1 (Homo sapiens) (UniProt P53667). As to the kind of experiment: Inhibition of human LIMK1 at 1 uM using CFL2 as substrate in presence of 33P-ATP by ProQinase assay.
The target in experiment [21] is Casein kinase II subunit alpha (Homo sapiens) (UniProt P68400). As to the kind of experiment: Inhibition of human CK2alpha1 at 1 uM using casein as substrate in presence of 33P-ATP by ProQinase assay.
Experiment [22] addresses Mitogen-activated protein kinase 12 (Homo sapiens) (UniProt P53778). As to the kind of experiment: Inhibition of recombinant human N-terminal GST-tagged P38gamma (1 to 367 residues) expressed in Escherichia coli assessed as remaining activity at 1 uM using MBP as substrate incubated for 30 mins in presence of [gamma-33P]ATP by filter binding method relative to control.

Experiment [23] has as its target RAC-alpha serine/threonine-protein kinase (Homo sapiens) (UniProt P31749). In words: Inhibition of human AKT1 at 1 uM using RBER-GSK3 as substrate in presence of 33P-ATP by ProQinase assay.
In experiment [24] the target is Ephrin type-A receptor 1 (Homo sapiens) (UniProt P21709). In words: Inhibition of human EPHA1 at 1 uM using polyEY as substrate in presence of 33P-ATP by ProQinase assay.

The source made the active and inactive calls. The calls are words filed in the database; no cut-off is given here.

Chain of Receptor-type tyrosine-protein kinase FLT3 (Homo sapiens) (P36888 whole entry): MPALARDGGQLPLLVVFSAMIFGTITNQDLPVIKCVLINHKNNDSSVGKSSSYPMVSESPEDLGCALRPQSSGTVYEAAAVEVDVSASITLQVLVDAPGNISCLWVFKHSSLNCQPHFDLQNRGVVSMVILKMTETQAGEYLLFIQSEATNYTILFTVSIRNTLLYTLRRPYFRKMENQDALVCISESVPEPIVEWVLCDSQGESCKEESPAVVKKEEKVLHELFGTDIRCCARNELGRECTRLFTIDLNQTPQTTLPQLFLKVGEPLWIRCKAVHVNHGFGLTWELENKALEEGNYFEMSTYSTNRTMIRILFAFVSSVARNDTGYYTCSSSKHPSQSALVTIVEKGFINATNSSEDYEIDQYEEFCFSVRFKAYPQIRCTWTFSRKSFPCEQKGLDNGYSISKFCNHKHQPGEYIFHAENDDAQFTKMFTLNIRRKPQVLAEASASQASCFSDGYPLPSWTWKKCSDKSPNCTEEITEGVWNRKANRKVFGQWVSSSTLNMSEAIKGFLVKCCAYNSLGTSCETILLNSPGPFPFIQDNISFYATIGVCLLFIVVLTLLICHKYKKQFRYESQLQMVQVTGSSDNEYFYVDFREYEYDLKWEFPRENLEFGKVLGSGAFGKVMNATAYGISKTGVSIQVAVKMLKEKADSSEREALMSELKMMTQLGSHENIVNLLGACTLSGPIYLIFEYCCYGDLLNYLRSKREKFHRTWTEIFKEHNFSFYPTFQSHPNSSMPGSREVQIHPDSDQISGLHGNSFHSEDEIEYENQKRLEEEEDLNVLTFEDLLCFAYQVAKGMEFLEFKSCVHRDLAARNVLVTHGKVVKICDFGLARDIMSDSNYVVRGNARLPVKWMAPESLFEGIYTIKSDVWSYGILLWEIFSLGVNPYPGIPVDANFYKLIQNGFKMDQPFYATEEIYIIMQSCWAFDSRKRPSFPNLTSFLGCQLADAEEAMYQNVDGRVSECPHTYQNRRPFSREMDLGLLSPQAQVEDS
Chain of LIM domain kinase 1 (Homo sapiens) (P53667 whole entry, looked up, the tested form may be a part): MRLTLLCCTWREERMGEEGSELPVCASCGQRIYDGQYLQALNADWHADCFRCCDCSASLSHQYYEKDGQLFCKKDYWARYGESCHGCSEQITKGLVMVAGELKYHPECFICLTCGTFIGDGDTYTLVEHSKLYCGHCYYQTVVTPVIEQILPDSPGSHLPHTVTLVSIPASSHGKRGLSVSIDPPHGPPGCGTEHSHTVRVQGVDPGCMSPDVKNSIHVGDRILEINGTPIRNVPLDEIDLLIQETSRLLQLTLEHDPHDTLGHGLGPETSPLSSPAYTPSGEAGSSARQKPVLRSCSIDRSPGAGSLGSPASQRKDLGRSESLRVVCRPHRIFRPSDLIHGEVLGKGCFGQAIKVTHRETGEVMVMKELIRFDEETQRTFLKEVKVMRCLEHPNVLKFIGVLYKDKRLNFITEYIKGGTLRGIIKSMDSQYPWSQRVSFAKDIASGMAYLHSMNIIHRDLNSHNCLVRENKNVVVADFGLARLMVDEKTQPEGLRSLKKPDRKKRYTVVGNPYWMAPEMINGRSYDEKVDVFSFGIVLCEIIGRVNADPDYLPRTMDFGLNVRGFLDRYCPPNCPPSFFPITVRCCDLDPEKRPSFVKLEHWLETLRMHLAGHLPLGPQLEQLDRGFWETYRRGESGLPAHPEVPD
Chain of Mast/stem cell growth factor receptor Kit (Homo sapiens) (P10721 whole entry): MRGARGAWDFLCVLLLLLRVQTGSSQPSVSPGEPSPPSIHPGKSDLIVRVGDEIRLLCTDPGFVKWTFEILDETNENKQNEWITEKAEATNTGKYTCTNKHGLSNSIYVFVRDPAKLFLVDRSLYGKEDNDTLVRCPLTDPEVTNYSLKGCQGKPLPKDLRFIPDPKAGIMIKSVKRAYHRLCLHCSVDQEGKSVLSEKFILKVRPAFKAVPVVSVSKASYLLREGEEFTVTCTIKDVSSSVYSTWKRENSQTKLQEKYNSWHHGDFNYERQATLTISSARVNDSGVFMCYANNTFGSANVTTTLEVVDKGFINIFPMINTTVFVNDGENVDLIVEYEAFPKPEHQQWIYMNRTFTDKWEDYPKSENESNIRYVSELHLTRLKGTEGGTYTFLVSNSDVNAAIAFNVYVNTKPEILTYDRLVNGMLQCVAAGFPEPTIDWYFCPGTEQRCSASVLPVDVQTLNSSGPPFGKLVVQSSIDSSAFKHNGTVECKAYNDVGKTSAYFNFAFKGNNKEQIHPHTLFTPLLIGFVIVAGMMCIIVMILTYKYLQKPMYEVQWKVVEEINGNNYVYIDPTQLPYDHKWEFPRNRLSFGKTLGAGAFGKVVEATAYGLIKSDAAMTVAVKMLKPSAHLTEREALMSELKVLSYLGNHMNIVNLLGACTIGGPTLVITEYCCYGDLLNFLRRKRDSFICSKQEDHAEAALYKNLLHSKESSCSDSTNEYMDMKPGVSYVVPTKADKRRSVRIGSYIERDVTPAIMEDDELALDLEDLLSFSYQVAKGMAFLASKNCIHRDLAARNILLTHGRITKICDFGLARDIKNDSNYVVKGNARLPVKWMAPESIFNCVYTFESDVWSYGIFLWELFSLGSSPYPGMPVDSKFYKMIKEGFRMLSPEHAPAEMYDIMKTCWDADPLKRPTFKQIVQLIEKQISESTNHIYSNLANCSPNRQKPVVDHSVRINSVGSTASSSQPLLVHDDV
Chain of Casein kinase II subunit alpha (Homo sapiens) (P68400 whole entry, looked up, the tested form may be a part): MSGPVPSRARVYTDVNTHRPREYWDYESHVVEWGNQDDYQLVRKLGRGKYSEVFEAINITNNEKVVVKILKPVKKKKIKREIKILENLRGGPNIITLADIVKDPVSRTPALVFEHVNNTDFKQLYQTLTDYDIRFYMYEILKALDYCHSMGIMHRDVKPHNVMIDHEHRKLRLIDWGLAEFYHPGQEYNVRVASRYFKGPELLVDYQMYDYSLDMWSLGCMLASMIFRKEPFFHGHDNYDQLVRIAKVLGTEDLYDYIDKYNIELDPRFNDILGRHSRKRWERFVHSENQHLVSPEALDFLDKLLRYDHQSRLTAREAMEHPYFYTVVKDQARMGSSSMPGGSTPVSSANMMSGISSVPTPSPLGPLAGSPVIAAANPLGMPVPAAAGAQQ
Chain of Receptor tyrosine-protein kinase erbB-4 (Homo sapiens) (Q15303 whole entry, the tested form may be a part): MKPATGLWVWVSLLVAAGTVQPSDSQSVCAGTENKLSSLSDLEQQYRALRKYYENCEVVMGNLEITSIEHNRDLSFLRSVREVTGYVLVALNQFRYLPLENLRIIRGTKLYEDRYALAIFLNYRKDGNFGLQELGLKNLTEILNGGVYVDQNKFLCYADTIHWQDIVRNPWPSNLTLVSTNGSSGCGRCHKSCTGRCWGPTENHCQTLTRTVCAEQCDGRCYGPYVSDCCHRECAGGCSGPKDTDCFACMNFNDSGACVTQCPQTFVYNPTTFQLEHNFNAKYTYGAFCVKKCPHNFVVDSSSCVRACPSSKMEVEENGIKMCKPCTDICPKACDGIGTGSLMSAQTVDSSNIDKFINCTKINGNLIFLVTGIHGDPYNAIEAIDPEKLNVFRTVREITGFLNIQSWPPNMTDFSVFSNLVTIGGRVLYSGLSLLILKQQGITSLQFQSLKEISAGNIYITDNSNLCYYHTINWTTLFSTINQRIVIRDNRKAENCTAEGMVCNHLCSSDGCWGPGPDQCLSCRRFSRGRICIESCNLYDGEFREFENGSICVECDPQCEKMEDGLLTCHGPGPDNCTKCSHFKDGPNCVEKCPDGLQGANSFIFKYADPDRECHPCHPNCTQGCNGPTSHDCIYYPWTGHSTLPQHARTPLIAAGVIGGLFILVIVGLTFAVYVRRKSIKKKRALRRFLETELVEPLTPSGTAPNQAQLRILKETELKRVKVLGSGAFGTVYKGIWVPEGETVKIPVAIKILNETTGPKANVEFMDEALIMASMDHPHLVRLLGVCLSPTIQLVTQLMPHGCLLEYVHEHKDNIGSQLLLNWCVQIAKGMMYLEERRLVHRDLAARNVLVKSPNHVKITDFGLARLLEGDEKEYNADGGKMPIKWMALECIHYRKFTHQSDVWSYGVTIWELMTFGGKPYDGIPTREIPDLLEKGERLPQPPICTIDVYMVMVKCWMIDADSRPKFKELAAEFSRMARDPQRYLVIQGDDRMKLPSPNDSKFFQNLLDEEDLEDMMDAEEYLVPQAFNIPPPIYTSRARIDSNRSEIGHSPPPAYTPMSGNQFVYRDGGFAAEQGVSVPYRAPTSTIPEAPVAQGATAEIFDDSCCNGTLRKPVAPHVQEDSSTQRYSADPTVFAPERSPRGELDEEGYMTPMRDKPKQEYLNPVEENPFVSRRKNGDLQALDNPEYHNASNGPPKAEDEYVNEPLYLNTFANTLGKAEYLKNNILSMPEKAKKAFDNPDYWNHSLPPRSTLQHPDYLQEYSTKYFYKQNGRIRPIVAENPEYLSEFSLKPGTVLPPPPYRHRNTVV
Chain of CDK3/Cyclin E (Homo sapiens) (P24864 whole entry, looked up): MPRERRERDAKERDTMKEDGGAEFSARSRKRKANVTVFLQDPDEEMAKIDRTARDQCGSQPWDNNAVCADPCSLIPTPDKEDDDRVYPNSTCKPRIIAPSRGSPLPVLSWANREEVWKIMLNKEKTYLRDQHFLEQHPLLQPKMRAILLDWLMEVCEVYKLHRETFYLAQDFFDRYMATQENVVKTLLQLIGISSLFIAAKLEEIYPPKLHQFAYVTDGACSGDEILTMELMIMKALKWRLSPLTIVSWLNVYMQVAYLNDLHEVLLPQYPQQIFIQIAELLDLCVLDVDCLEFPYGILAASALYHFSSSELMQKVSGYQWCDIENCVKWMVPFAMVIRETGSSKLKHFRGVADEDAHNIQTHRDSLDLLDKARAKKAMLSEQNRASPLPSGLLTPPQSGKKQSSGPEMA
Chain of CDK3/Cyclin E (Homo sapiens) (Q00526 whole entry, looked up): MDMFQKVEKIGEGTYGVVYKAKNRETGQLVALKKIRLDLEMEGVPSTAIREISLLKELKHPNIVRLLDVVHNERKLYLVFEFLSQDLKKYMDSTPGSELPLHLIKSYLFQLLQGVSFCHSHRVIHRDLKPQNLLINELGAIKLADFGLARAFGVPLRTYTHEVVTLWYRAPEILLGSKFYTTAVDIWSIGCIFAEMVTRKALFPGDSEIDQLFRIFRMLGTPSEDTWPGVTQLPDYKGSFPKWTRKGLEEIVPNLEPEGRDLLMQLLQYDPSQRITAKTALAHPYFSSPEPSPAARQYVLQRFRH

Regarding `CC(C)(O)CNc1ncc(-c2ccnc(Nc3ccnc(Cl)c3)n2)c(CC2CC2)n1`, the inhibition entry in experiment [1], in experiment [2], in experiment [3], in experiment [4], in experiment [5] and in experiment [6] was “inactive” throughout. Moreover, the inhibition entry in experiment [7], in experiment [9], in experiment [10], in [11], in [12] and in experiment [16] was “inactive” in each case. Besides, the inhibition entry in [17], in experiment [20], in experiment [21], in [23] and in experiment [24] was “inactive” in each case. The Activity in experiment [8] stood at 82%; in experiment [14] it was 91%; in [15], 103%; in experiment [18] it was 108%; in experiment [19] it was 101%; in experiment [22], 133%. In experiment [13], half-maximal inhibition (IC50) was put at 11.3 µM.

The term IC50 denotes the midpoint of a concentration-inhibition curve.

Values taken from ChEMBL document CHEMBL5705899 (Biochem J, 2014).
